Measured values as given in PMC9669016, “First-in-human phase Ia study of the PI3Kα inhibitor CYH33 in patients with solid tumors” (Nature Communications, 2022).

Experiment: Clinical pharmacokinetics: plasma CYH33 and I27 by LC/MS/MS
Assay type: in vivo, human
Protocol: The PK characteristics of CYH33 and its active metabolite I27 were evaluated after single and multiple dose administrations. PK data were obtained from 37 patients from 7 dose cohorts: 1 mg (n = 1), 5 mg (n = 1), 10 mg (n = 2), 20 mg (n = 6), 30 mg (n = 12), 40 mg (n = 13), and 60 mg (n = 2). Intensive and sparse PK sampling was performed. Prior to initiating a continuous daily treatment cycle, the first 5 patients participated in a single dose PK treatment period with a 7-day washout in order to determine the terminal-phase half-life (t1/2) of CYH33 and its active metabolite I27. Based on the single dose PK data for CYH33 of the first 5 patients at doses of 1, 5, 10 and 20 mg, the PK and metabolic characteristics of CYH33 and I27 were evaluated. Combined with the pre-specified rules in the protocol and deliberation from the SMC, subsequent patients directly entered the continuous dose phase.
Blood samples for PK evaluation were collected at: (1) during the single dose phase: on day 1 pre-dose and 0.5, 1, 2, 4, 8, 12, 24, 36, 48, and 72 h post-dose; (2) during the continuous dose phase: C1D1/Cycle 1 Day 28 pre-dose, and 0.5, 1, 2, 3, 4, 6, 8, 12, and 24 h post-dose; and C1D8/Day 15 pre-dose. Plasma concentrations of CYH33 and I27 were analyzed using a liquid chromatography-tandem mass spectrometry (LC/MS/MS) assay (Shimadzu Corporation, LC-30AD) with a lower limit of quantification (LLOQ) of 2.585 ng/mL and 1.0 ng/mL for CYH33 and I27, respectively. […] Blood samples for measuring the FBG level were collected within 30 min before dosing on C1D1, C1D15, and on the first day of subsequent treatment cycles.

[1] = CYH33, Cycle 1 Day 1, 5 mg (n = 1)
[2] = CYH33, Cycle 1 Day 1, 10 mg (n = 2)
[3] = CYH33, Cycle 1 Day 1, 20 mg (n = 5)

COC(=O)Nc1cc(C(F)(F)F)c(-c2nc(N3CCOCC3)c3cc(CN4CCN(S(C)(=O)=O)CC4)cn3n2)cn1 [CYH33, methyl (5-(6-((4-(methylsulfonyl)piperazin-1-yl)methyl)−4-morpholinopyrrolo[2,1-f][1,2,4]triazin-2-yl)−4-(trifluoromethyl)pyridin-2-yl)carbamate]
CYH33 plasma concentration, mean (C1D1, 1 mg, 1 h): 4.6 ng/mL
CYH33 plasma concentration, mean (C1D1, 1 mg, 2 h): 3.8 ng/mL
CYH33 plasma concentration, mean (C1D1, 1 mg, 4 h): 2.9 ng/mL
CYH33 plasma concentration, mean (C1D1, 1 mg, 8 h): 1.8 ng/mL
CYH33 plasma concentration, mean (C1D1, 1 mg, 12 h): 0 ng/mL
CYH33 plasma concentration, mean (C1D1, 1 mg, 36 h): 0 ng/mL
CYH33 plasma concentration, mean (C1D1, 1 mg, 48 h): 0 ng/mL
CYH33 plasma concentration, mean (C1D1, 1 mg, 72 h): 0 ng/mL
CYH33 plasma concentration, mean (C1D1, 5 mg, 1 h): 18.1 ng/mL
CYH33 plasma concentration, mean (C1D1, 5 mg, 2 h): 24.6 ng/mL
CYH33 plasma concentration, mean (C1D1, 5 mg, 4 h): 19.5 ng/mL
CYH33 plasma concentration, mean (C1D1, 5 mg, 8 h): 11.8 ng/mL
CYH33 plasma concentration, mean (C1D1, 5 mg, 12 h): 9.7 ng/mL
CYH33 plasma concentration, mean (C1D1, 5 mg, 36 h): 3.8 ng/mL
CYH33 plasma concentration, mean (C1D1, 5 mg, 48 h): 2.5 ng/mL
CYH33 plasma concentration, mean (C1D1, 10 mg, 1 h): 30.2 ng/mL
CYH33 plasma concentration, mean (C1D1, 10 mg, 2 h): 35.3 ng/mL
CYH33 plasma concentration, mean (C1D1, 10 mg, 8 h): 30.2 ng/mL
CYH33 plasma concentration, mean (C1D1, 10 mg, 12 h): 23.9 ng/mL
CYH33 plasma concentration, mean (C1D1, 10 mg, 36 h): 9.3 ng/mL
CYH33 plasma concentration, mean (C1D1, 10 mg, 48 h): 6.8 ng/mL
CYH33 plasma concentration, mean (C1D1, 20 mg, 0.5 h, in ng/mL): 26.7325
CYH33 plasma concentration, mean (C1D1, 20 mg, 1 h, in ng/mL): 44.192
CYH33 plasma concentration, mean (C1D1, 20 mg, 2 h, in ng/mL): 54.18
CYH33 plasma concentration, mean (C1D1, 20 mg, 3 h, in ng/mL): 46.425
CYH33 plasma concentration, mean (C1D1, 20 mg, 6 h, in ng/mL): 32.9075
CYH33 plasma concentration, mean (C1D1, 20 mg, 8 h, in ng/mL): 36.04
CYH33 plasma concentration, mean (C1D1, 20 mg, 36 h): 23.6 ng/mL
CYH33 plasma concentration, mean (C1D1, 20 mg, 48 h): 15.8 ng/mL
CYH33 plasma concentration, mean (C1D1, 30 mg, 0.5 h, in ng/mL): 24.6458
CYH33 plasma concentration, mean (C1D1, 30 mg, 1 h, in ng/mL): 57.5417
CYH33 plasma concentration, mean (C1D1, 30 mg, 2 h, in ng/mL): 79.1167
CYH33 plasma concentration, mean (C1D1, 30 mg, 3 h, in ng/mL): 79.1917
CYH33 plasma concentration, mean (C1D1, 30 mg, 6 h, in ng/mL): 64.9583
CYH33 plasma concentration, mean (C1D1, 30 mg, 8 h, in ng/mL): 60.1583
CYH33 plasma concentration, mean (C1D1, 30 mg, 24 h, in ng/mL): 43.65
CYH33 plasma concentration, mean (C1D1, 30 mg, 48 h): 42.5 ng/mL
CYH33 plasma concentration, mean (C1D1, 40 mg, 1 h, in ng/mL): 78.4333
CYH33 plasma concentration, mean (C1D1, 40 mg, 2 h): 87 ng/mL
CYH33 plasma concentration, mean (C1D1, 40 mg, 3 h): 88.2 ng/mL
CYH33 plasma concentration, mean (C1D1, 40 mg, 4 h, in ng/mL): 78.0667
CYH33 plasma concentration, mean (C1D1, 40 mg, 6 h, in ng/mL): 62.5333
CYH33 plasma concentration, mean (C1D1, 40 mg, 8 h, in ng/mL): 57.6333
CYH33 plasma concentration, mean (C1D1, 40 mg, 12 h, in ng/mL): 47.8667
CYH33 plasma concentration, mean (C1D1, 40 mg, 48 h): 45.2 ng/mL
CYH33 plasma concentration, mean (C1D1, 60 mg, 1 h): 55.6 ng/mL
CYH33 plasma concentration, mean (C1D1, 60 mg, 2 h, in ng/mL): 86.475
CYH33 plasma concentration, mean (C1D1, 60 mg, 3 h, in ng/mL): 95.325
CYH33 plasma concentration, mean (C1D1, 60 mg, 4 h, in ng/mL): 109.05
CYH33 plasma concentration, mean (C1D1, 60 mg, 6 h, in ng/mL): 98.025
CYH33 plasma concentration, mean (C1D1, 60 mg, 8 h): 96.2 ng/mL
CYH33 plasma concentration, mean (C1D1, 60 mg, 12 h, in ng/mL): 78.575
CYH33 plasma concentration, mean (C1D1, 60 mg, 48 h): 61.4 ng/mL
CYH33 plasma concentration, mean (C1D28, 1 mg, 0.5 h): 2.38 ng/mL
CYH33 plasma concentration, mean (C1D28, 1 mg, 1 h): 4.57 ng/mL
CYH33 plasma concentration, mean (C1D28, 1 mg, 2 h): 4.43 ng/mL
CYH33 plasma concentration, mean (C1D28, 1 mg, 8 h): 2.84 ng/mL
CYH33 plasma concentration, mean (C1D28, 1 mg, 12 h): 1.9 ng/mL
CYH33 plasma concentration, mean (C1D28, 1 mg, 24 h): 0 ng/mL
CYH33 plasma concentration, mean (C1D28, 5 mg, 0.5 h): 48.6 ng/mL
CYH33 plasma concentration, mean (C1D28, 5 mg, 1 h): 56.2 ng/mL
CYH33 plasma concentration, mean (C1D28, 5 mg, 2 h): 43 ng/mL
CYH33 plasma concentration, mean (C1D28, 5 mg, 8 h): 23.5 ng/mL
CYH33 plasma concentration, mean (C1D28, 5 mg, 12 h): 20 ng/mL
CYH33 plasma concentration, mean (C1D28, 5 mg, 24 h): 15.1 ng/mL
CYH33 plasma concentration, mean (C1D28, 10 mg, 0.5 h): 49.9 ng/mL
CYH33 plasma concentration, mean (C1D28, 10 mg, 1 h): 61.4 ng/mL
CYH33 plasma concentration, mean (C1D28, 10 mg, 2 h): 77.5 ng/mL
CYH33 plasma concentration, mean (C1D28, 10 mg, 8 h): 55.7 ng/mL
CYH33 plasma concentration, mean (C1D28, 10 mg, 12 h): 47.9 ng/mL
CYH33 plasma concentration, mean (C1D28, 10 mg, 24 h): 35.4 ng/mL
CYH33 plasma concentration, mean (C1D28, 20 mg, 0.5 h, in ng/mL): 110.84
CYH33 plasma concentration, mean (C1D28, 20 mg, 1 h): 134 ng/mL
CYH33 plasma concentration, mean (C1D28, 20 mg, 2 h, in ng/mL): 135.8
CYH33 plasma concentration, mean (C1D28, 20 mg, 6 h, in ng/mL): 117.175
CYH33 plasma concentration, mean (C1D28, 20 mg, 8 h, in ng/mL): 120.72
CYH33 plasma concentration, mean (C1D28, 20 mg, 12 h, in ng/mL): 106.84
CYH33 plasma concentration, mean (C1D28, 20 mg, 24 h, in ng/mL): 83.68
CYH33 plasma concentration, mean (C1D28, 30 mg, 0.5 h, in ng/mL): 149.367
CYH33 plasma concentration, mean (C1D28, 30 mg, 1 h, in ng/mL): 154.011
CYH33 plasma concentration, mean (C1D28, 30 mg, 2 h, in ng/mL): 172.178
CYH33 plasma concentration, mean (C1D28, 30 mg, 6 h, in ng/mL): 163.956
CYH33 plasma concentration, mean (C1D28, 30 mg, 8 h, in ng/mL): 162.122
CYH33 plasma concentration, mean (C1D28, 30 mg, 12 h, in ng/mL): 143.189
CYH33 plasma concentration, mean (C1D28, 40 mg, 0.5 h, in ng/mL): 167.057
CYH33 plasma concentration, mean (C1D28, 40 mg, 1 h, in ng/mL): 191.129
CYH33 plasma concentration, mean (C1D28, 40 mg, 2 h, in ng/mL): 206.714
CYH33 plasma concentration, mean (C1D28, 40 mg, 3 h, in ng/mL): 262.333
CYH33 plasma concentration, mean (C1D28, 40 mg, 6 h, in ng/mL): 245.333
CYH33 plasma concentration, mean (C1D28, 40 mg, 8 h, in ng/mL): 166.029
CYH33 plasma concentration, mean (C1D28, 40 mg, 12 h, in ng/mL): 158.629
CYH33 plasma concentration, mean (C1D28, 40 mg, 24 h, in ng/mL): 134.657
CYH33 plasma concentration, mean (C1D28, 60 mg, 0.5 h): 155 ng/mL
CYH33 plasma concentration, mean (C1D28, 60 mg, 1 h): 184 ng/mL
CYH33 plasma concentration, mean (C1D28, 60 mg, 2 h): 198 ng/mL
CYH33 plasma concentration, mean (C1D28, 60 mg, 3 h): 193 ng/mL
CYH33 plasma concentration, mean (C1D28, 60 mg, 6 h): 205 ng/mL
CYH33 plasma concentration, mean (C1D28, 60 mg, 8 h): 181 ng/mL
CYH33 plasma concentration, mean (C1D28, 60 mg, 12 h): 163 ng/mL
CYH33 plasma concentration, mean (C1D28, 60 mg, 24 h): 135 ng/mL
CL/F, mean (CV%) [1]: 11.6 L/h
V/F, mean (CV%) [1]: 322.8 L
CL/F, mean (CV%) [2]: 9.2 (11) L/h
V/F, mean (CV%) [2]: 263.2 (24) L
CL/F, mean (CV%) [3]: 9.1 L/h
V/F, mean (CV%) [3]: 274.2 L
CLss/F, mean (CYH33, Cycle 1 Day 28, 1 mg (n=1)): 19.4 L/h
